The results in this text go back to patent US10689383B2, “Optionally fused heterocyclyl-substituted derivatives of pyrimidine useful for the treatment of inflammatory, metabolic, oncologic and autoimmune diseases” (NUEVOLUTION A/S, priority 2014, dated 2020).

One assay has as its system Th17 cells. Nature of the assay: Th17 Assay (IL-17 levels in supernatants by ELISA). The format is cell-based. To be noted: Homo sapiens; read-out: Th17 activity range @ 1 μM (% inhibition). The procedure:
The activity of the compounds was evaluated using a Fluorescence Polarization (FP) Assay and, in most cases, a Th17 Assay and/or RORγ Reporter assay (also referred to as Gal4 assay). The FP assay is an in vitro assay monitoring binding within the ligand binding pocket. The RORγ and the Th17 assays are both cell-based assays monitoring functional activity of the compound assayed.
Human peripheral blood mononuclear cells (PBMCs) were isolated from buffy coats of healthy human volunteers using the Ficoll paque PLUS kit (GE Healthcare, cat no 17-1440-02), as instructed by the manufacturer. Naive CD4+ T cells were isolated with Naive CD4+ T cell kit, human (Milteny Biotec, cat no 130-094-131). The following modifications were made to the manufacturer's protocol: 1) Incubation with Biotin-Antibody Cocktail and Anti-Biotin MicroBeads was prolonged to 30 minutes, and 2) Cells were washed with 40 mL of Miltenyi buffer. Differentiation of Th17 cells in anti-CD3 (BD Pharmingen, 5 μg/ml) coated 96-well plates (400,000 cells/well, 160 μl RPMI 1640+10% Fetal Bovine Serum) containing 5 μg/ml anti-CD28 (BD Pharmingen), 10 ng/ml IL-2 (R&D Systems), 2.5 ng/ml TGFβ-1 (R&D Systems), 20 ng/ml IL-1β (R&D Systems), 20 ng/ml IL-6 (R&D Systems), 30 ng/ml IL-23 (R&D Systems), 2.5 μg/ml anti-IL-4 (R&D Systems) and 1 μg/ml anti-IFNγ (R&D Systems) and with test compound during the entire differentiation (or vehicle, 0.1% DMSO for control). Test compounds were tested in triplicates, diluted 1000-fold in medium (final DMSO concentration is 0.1%). Incubated for seven days at 37° C., 5% CO2, 95% humidity, and 2-fluoro-4′-[[4-(4-pyridinylmethyl)-1-piperazinyl]methyl]-α,α-bis(trifluoromethyl)-[1,1′-biphenyl]-4-methanol (SR2211 Calbiochem, Cat. No. 557353) was used as positive control. As negative control, cells were differentiated into Th0 using 5 μg/ml anti-CD28 (BD Pharmingen), 10 ng/ml IL-2 (R&D Systems), 2 μg/ml anti-IL4 (R&D Systems) and 2 μg/ml anti-IFNγ (R&D Systems) are negative control. IL-17 levels in supernatants were measured with ELISA (R&D Systems).
In general terms: In an ELISA, binding on a coated surface is turned into a signal by an enzyme label.

Assay [1] concerns the target T1, human RORγt (Ligand Binding Domain) (Homo sapiens, UniProt P51449).
T1 construct: purchased Crelux (Planegg, Germany) batch no PC5032-1
T1 sequence (P51449 269-508 limits assumed): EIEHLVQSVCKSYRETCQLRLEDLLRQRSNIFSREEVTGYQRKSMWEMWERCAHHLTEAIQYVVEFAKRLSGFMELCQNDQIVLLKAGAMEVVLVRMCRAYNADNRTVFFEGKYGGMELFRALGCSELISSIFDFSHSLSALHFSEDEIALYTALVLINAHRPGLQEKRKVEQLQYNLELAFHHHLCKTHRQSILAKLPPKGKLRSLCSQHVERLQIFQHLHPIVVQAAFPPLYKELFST
The assay can be described thus: Fluorescence Polarization (FP) Assay. To be noted: Fluorescence Polarization (FP) Assay; values given as upper bounds of activity ranges; read-out: FP activity range. The method, boiled down:
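Binding to the ligand pocket followed by fluorescence polarization with a TAMRA-tagged RORγt ligand probe of 910 g/mole. Negative control wells received DMSO only.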
(In general: In fluorescence polarisation assays a small probe gives low polarisation when free and higher when bound to something large.)

The target in assay [2] is T2, yeast Gal4-DNA binding domain fused to the ligand binding domain of human RORγ (Homo sapiens, UniProt P51449).
T2 construct: host or cells: HEK293t
T2 sequence (P51449 269-508 limits assumed): T1 sequence (P51449 269-508 limits assumed)
The assay can be described thus: RORγ Reporter Assay (Gal4). It is filed as cell-based. To be noted: values given as lower bounds of ranges; for Gal4 activity range @ 0.1 μM (% inhibition): RORγ Reporter Assay (Gal4) at 0.1 μM; for Gal4 activity range @ 1 μM (% inhibition): RORγ Reporter Assay (Gal4) at 1 μM. Put shortly: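 Compound at final 1,000 or 100 nM (0.1% DMSO, triplicate) was added to the transfected HEK293t cells carrying a Gal4-UAS luciferase reporter for 24 h at 37 °C, 10% charcoal-stripped FBS. Activity reduction expressed as percent of vehicle-only luciferase signal.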

A word on the inhibition: it is the change of the read-out against control, counted positive when it falls. Take `CC(C)C[C@@H](Oc1ncnc(N2CCC[C@@H]2c2ccc(C(F)(F)F)cc2)c1F)C(N)=O` (single isomer, unassigned) [Example 77, (2R)-2-[5-fluoro-6-[(2R)-2-[4-(trifluoromethyl)phenyl]pyrrolidin-1-yl]pyrimidin-4-yl]oxy-4-methyl-pentanamide or (2R)-2-[5-fluoro-6-[(2S)-2-[4-(trifluoromethyl)phenyl]pyrrolidin-1-yl]pyrimidin-4-yl]oxy-4-methyl-pentanamide]: the inhibition at 1 µM in the assay with Th17 cells is above 50%.

For `CC(C)(C)C[C@@H](Nc1cc(N2CCCC2c2ccc(C(F)(F)F)cc2)ncn1)C(N)=O` (stereo partly drawn) [Example 6, (2R)-4,4-dimethyl-2-[[6-[2-[4-(trifluoromethyl)phenyl]pyrrolidin-1-yl]pyrimidin-4-yl]amino]pentanamide], the inhibition at 1 µM with Th17 cells was above 20%. Further, the IC50 in assay [1] is below 10 µM.

With `COC(C)(C)CC(C)Nc1ncnc(N2CCCC2c2ccc(C(F)(F)F)cc2)c1F` (centres unmarked) [Example 16, 5-fluoro-N-(3-methoxy-1,3-dimethyl-butyl)-6-[2-[4-(trifluoromethyl)phenyl]pyrrolidin-1-yl]pyrimidin-4-amine], the inhibition at 1 µM in the assay with Th17 cells is above 0%.

On to `CC(C)C[C@@H](Oc1ncnc(-n2nccc2-c2ccc(C(F)(F)F)cc2)c1F)C(N)=O` [Example 80, (2R)-2-[5-fluoro-6-[5-[4-(trifluoromethyl)phenyl]pyrazol-1-yl]pyrimidin-4-yl]oxy-4-methyl-pentanamide], for which, in the assay on Th17 cells, the inhibition at 1 µM is above 50%.

Consider `O=C(O)Cc1ccc(COc2ncnc(NCc3ccc(C(F)(F)F)cc3)c2F)cc1` [Example 83, 2-[4-[[5-fluoro-6-[[4-(trifluoromethyl)phenyl]methylamino]pyrimidin-4-yl]oxymethyl]phenyl]acetic acid], for which the inhibition at 1 µM in the assay on Th17 cells was above 20%.

Take `NC(=O)Cc1ccc(CNc2ncnc(N3CCC3c3ccc(C(F)(F)F)cc3)c2F)cc1` (centres unmarked) [Example 307, 2-[4-[[[5-fluoro-6-[2-[4-(trifluoromethyl)phenyl]azetidin-1-yl]pyrimidin-4-yl]amino]methyl]phenyl]acetamide]: in assay [1], the IC50 is below 2 µM. In addition, in assay [2], the “Gal4 activity range @ 0.1 μM (% inhibition)” value is recorded as above 20 % inhibition and the “Gal4 activity range @ 1 μM (% inhibition)” value was above 50 % inhibition.

Regarding `NC(=O)Cc1ccc(CNc2ncnc(N3CCCCC3c3ccc(C(F)(F)F)cc3)c2F)cc1` (centres unmarked) [Example 308, 2-[4-[[[5-fluoro-6-[2-[4-(trifluoromethyl)phenyl]-1-piperidyl]pyrimidin-4-yl]amino]methyl]phenyl]acetamide], the IC50 in assay [1] was below 10 µM. Further, in assay [2], the “Gal4 activity range @ 0.1 μM (% inhibition)” value was above 20 % inhibition and the “Gal4 activity range @ 1 μM (% inhibition)” value was above 50 % inhibition.

With `Cc1ccc(C2CCCN2c2ncnc(NCc3ccc(CC(N)=O)cc3)c2F)o1` (centres unmarked) [Example 313, 2-[4-[[[5-fluoro-6-[2-(5-methyl-2-furyl)pyrrolidin-1-yl]pyrimidin-4-yl]amino]methyl]phenyl]acetamide], in assay [1], the IC50 is below 0.5 µM. Further, in assay [2], the “Gal4 activity range @ 0.1 μM (% inhibition)” value is above 20 % inhibition and the “Gal4 activity range @ 1 μM (% inhibition)” value is above 80 % inhibition.

Regarding `CCc1ccc(C2CCCN2c2ncnc(NCc3ccc(CC(N)=O)cc3)c2F)o1` (centres unmarked) [Example 316, 2-[4-[[[6-[2-(5-ethyl-2-furyl)pyrrolidin-1-yl]-5-fluoro-pyrimidin-4-yl]amino]methyl]phenyl]acetamide], the IC50 in assay [1] is below 0.5 µM. Moreover, in assay [2], the “Gal4 activity range @ 0.1 μM (% inhibition)” value is given as above 20 % inhibition and the “Gal4 activity range @ 1 μM (% inhibition)” value is given as above 80 % inhibition.

In the case of `COc1ccc(C2CCCN2c2ncnc(NCc3ccc(CC(N)=O)cc3)c2F)c(OC)c1` (centres unmarked) [Example 318, 2-[4-[[[6-[2-(2,4-dimethoxyphenyl)pyrrolidin-1-yl]-5-fluoro-pyrimidin-4-yl]amino]methyl]phenyl]acetamide], the IC50 in assay [1] is below 0.5 µM. In addition, in assay [2], the “Gal4 activity range @ 0.1 μM (% inhibition)” value is given as above 20 % inhibition and the “Gal4 activity range @ 1 μM (% inhibition)” value was above 20 % inhibition.

As to `O=S(=O)(O)c1ccc(CNc2ncnc(N3CCC[C@@H]3c3ccc(C(F)(F)F)cc3)c2F)cc1` [Example 319, 4-[[[5-fluoro-6-[(2R)-2-[4-(trifluoromethyl)phenyl]pyrrolidin-1-yl]pyrimidin-4-yl]amino]methyl]benzenesulfonic acid], the IC50 in assay [1] was below 0.5 µM. Further, in assay [2], the “Gal4 activity range @ 1 μM (% inhibition)” value is reported as above 0 % inhibition.

As to `COCCNS(=O)(=O)c1ccc(CNc2ncnc(N3CCC[C@@H]3c3ccc(C(F)(F)F)cc3)c2F)cc1` [Example 320, 4-[[[5-fluoro-6-[(2R)-2-[4-(trifluoromethyl)phenyl]pyrrolidin-1-yl]pyrimidin-4-yl]amino]methyl]-N-(2-methoxyethyl)benzenesulfonamide], the IC50 in assay [1] is below 0.5 µM. Further, in assay [2], the “Gal4 activity range @ 0.1 μM (% inhibition)” value is above 80 % inhibition and the “Gal4 activity range @ 1 μM (% inhibition)” value is above 80 % inhibition.

For `NC(=O)Cc1ccc(CNc2ncnc(N3CCCC3c3ccc(C(F)(F)F)cc3O)c2F)cc1` (centres unmarked) [Example 323, 2-[4-[[[5-fluoro-6-[2-[2-hydroxy-4-(trifluoromethyl)phenyl]pyrrolidin-1-yl]pyrimidin-4-yl]amino]methyl]phenyl]acetamide], the IC50 in assay [1] is below 0.5 µM. In assay [2], the “Gal4 activity range @ 0.1 μM (% inhibition)” value is on record as above 80 % inhibition and the “Gal4 activity range @ 1 μM (% inhibition)” value was above 80 % inhibition.

In the case of `CS(=O)(=O)N1CCC(CNc2ncnc(N3CCCC3c3ccc(C(F)(F)F)cc3O)c2F)CC1` (centres unmarked) [Example 324, 2-[1-[5-fluoro-6-[(1-methylsulfonyl-4-piperidyl)methylamino]pyrimidin-4-yl]pyrrolidin-2-yl]-5-(trifluoromethyl)phenol], in assay [1], the IC50 was below 0.5 µM. Further, in assay [2], the “Gal4 activity range @ 0.1 μM (% inhibition)” value is recorded as above 50 % inhibition and the “Gal4 activity range @ 1 μM (% inhibition)” value is above 80 % inhibition.

In the case of `NC(=O)Cc1ccc(Cn2ccc3c(N4CCOC[C@@H]4c4ccc(C(F)(F)F)nc4)ncnc32)cc1` [Example 326, 2-[4-[[4-[(3S)-3-[6-(trifluoromethyl)-3-pyridyl]morpholin-4-yl]pyrrolo[2,3-d]pyrimidin-7-yl]methyl]phenyl]acetamide], the IC50 in assay [1] is below 0.5 µM. In assay [2], the “Gal4 activity range @ 0.1 μM (% inhibition)” value is above 50 % inhibition and the “Gal4 activity range @ 1 μM (% inhibition)” value is above 80 % inhibition.

Turning to `CS(=O)(=O)N1CCC(CNc2ncnc(N3CCOC[C@@H]3c3ccc(C(F)(F)F)cc3)c2F)C1` (stereo partly drawn) [Example 327, 5-fluoro-N-[(1-methylsulfonylpyrrolidin-3-yl)methyl]-6-[(3S)-3-[4-(trifluoromethyl)phenyl]morpholin-4-yl]pyrimidin-4-amine], the IC50 in assay [1] is below 1 µM. In assay [2], the “Gal4 activity range @ 0.1 μM (% inhibition)” value was above 20 % inhibition and the “Gal4 activity range @ 1 μM (% inhibition)” value is reported as above 80 % inhibition.

With `NC(=O)Cc1ccc(Cn2ccc3c(N4CCOC[C@@H]4c4ccc(C(F)(F)F)cn4)ncnc32)cc1` [Example 328, 2-[4-[[4-[(3S)-3-[5-(trifluoromethyl)-2-pyridyl]morpholin-4-yl]pyrrolo[2,3-d]pyrimidin-7-yl]methyl]phenyl]acetamide], the IC50 in assay [1] is below 0.5 µM. Besides, in assay [2], the “Gal4 activity range @ 0.1 μM (% inhibition)” value is on record as above 80 % inhibition and the “Gal4 activity range @ 1 μM (% inhibition)” value is above 80 % inhibition.
